Data published in patent US20240016763A1, “COENZYME Q10 MICROEMULSION, PREPARATION METHOD THEREFOR AND USE THEREOF” (ZHEJIANG NHU CO., LTD., priority 2021, published 2024).

Experiments:
[1] = Test of stability: oxygen filling (25° C.), 15 days; assay type: physicochemical
Description: (§1) The coenzyme Q10 microemulsion is quickly poured into a transparency meter barrel, and an inspector observes vertically downward from the barrel mouth of the transparency meter, and slowly releases the microemulsion just to a height of the microemulsion where the type at the bottom can be clearly recognized. The height of the microemulsion is the transparency of the coenzyme Q10 microemulsion, which is generally more than 30 cm to be transparent. The measurement is repeated for 3 times, and the results are averaged.
(§2) Microemulsion samples and coenzyme Q10 raw material are placed in the conditions of irradiation at 4500 Lx light intensity, oxygen filling (25° C.) and 60° C. (incubator) for 15 days, respectively, for experiments. In these experiments, samples are taken on day 0, day 5, day 10 and day 15, respectively, and the content of coenzyme Q10 is determined by HPLC, to investigate the effects of light, oxygen and temperature on the labeled content (%) of coenzyme Q10 and the appearance.
(§3) Refer to the test method of coenzyme Q10 content in Chinese Pharmacopoeia (2015 edition).

[2] = Test of bioavailability: plasma concentration in rats after intragastric administration; assay type: in vivo; details: mean±SD, n=10
Protocol: Preparation of coenzyme Q10 raw material sample solution: 0.1 g of coenzyme Q10 crystal is accurately weighed and dissolved in 100 mL of diethylene glycol monoethyl ether solution, as a raw material sample.
Microemulsion samples of Examples 1 to 6, coded as Sample 1, Sample 2, Sample 3, Sample 4, Sample 5 and Sample 6, are selected to conduct animal experiments.
Experimental conditions: the temperature of the laboratory feeding environment is 25±3° C., the relative humidity is 55% to 70%, the animals are free to drink water and eat food (deionized water and standard feed) every day, and they are fasted for 12 hours before the experiment but drink water freely.
Experimental animals and grouping: seventy 8-week-old healthy SPF-grade male SD rats, provided by Hubei Experimental Animal Research Center, weighing from 220 g to 230 g.
The rats are operated according to the international experimental guidelines for experimental animals, and every 10 rats fasted for 12 hours are divided into one group by a completely random design, totally seven groups.
Oral administration, sample collection and treatment: the rats are intragastrically administered with the same dose (15 mg/kg: coenzyme Q10 content) of microemulsion samples 1 to 6 and raw material samples, respectively. After administration, plasma is collected at 5 minutes, 15 minutes, 30 minutes, 1 hour, 3 hours, 6 hours, 10 hours and 15 hours, respectively, and put into anticoagulant centrifuge tubes containing heparin, mixed uniformly and then centrifuged to separate the plasma. After the treatment, the plasma concentration is detected by HPLC.
According to the results of the plasma concentration, statistical fitting analysis is carried out by using statistical analysis software, to calculate the plasma concentration. The results is expressed as mean value±standard deviation.

[3] = Test of stability: 60° C. (incubator), 15 days; assay type: physicochemical
Description: as §1, §2, §3

[4] = Test of stability: irradiation at 4500 Lx light intensity, 15 days; assay type: physicochemical; details: 4500 Lx illumination
Description: as §1, §2, §3

[5] = Test of particle size DV(90) (laser particle size distribution); assay type: physicochemical; details: sample diluted 1:20 with distilled water, 25° C.
Protocol: The microemulsion sample is diluted with distilled water at a ratio of 1:20 and gently shaken to form a clear microemulsion. Then, the particle size distribution of the emulsion is measured by MASTERSIZER 3000 laser particle size distribution instrument (purchased from Malvern Company, UK) at 25° C.

Labeled content of coenzyme Q10 ([1]; 0 day): 99%
Labeled content of coenzyme Q10 ([1]; 5 days): 97%
Labeled content of coenzyme Q10 ([1]; 10 days): 95%
Labeled content of coenzyme Q10 ([1]; 15 days): 90%
average plasma concentration ([2]; intragastric 15 mg/kg coenzyme Q10, 5 minutes): 12.1 µg/L
average plasma concentration ([2]; intragastric 15 mg/kg coenzyme Q10, 15 minutes): 21.3 µg/L
average plasma concentration ([2]; intragastric 15 mg/kg coenzyme Q10, 30 minutes): 49.3 µg/L
average plasma concentration ([2]; intragastric 15 mg/kg coenzyme Q10, 1 hour): 93.0 µg/L
average plasma concentration ([2]; intragastric 15 mg/kg coenzyme Q10, 3 hours): 110.4 µg/L
average plasma concentration ([2]; intragastric 15 mg/kg coenzyme Q10, 6 hours): 83.3 µg/L
average plasma concentration ([2]; intragastric 15 mg/kg coenzyme Q10, 10 hours): 37.6 µg/L
average plasma concentration ([2]; intragastric 15 mg/kg coenzyme Q10, 15 hours): 11.5 µg/L
Labeled content of coenzyme Q10 ([3]; 0 day): 99%
Labeled content of coenzyme Q10 ([3]; 5 days): 97%
Labeled content of coenzyme Q10 ([3]; 10 days): 95%
Labeled content of coenzyme Q10 ([3]; 15 days): 92%
Labeled content of coenzyme Q10 ([4]; 0 day): 99%
Labeled content of coenzyme Q10 ([4]; 5 days): 95%
Labeled content of coenzyme Q10 ([4]; 10 days): 93%
Labeled content of coenzyme Q10 ([4]; 15 days): 88%
DV(90) [5]: 75000 nm
Structure (SMILES): COC1=C(OC)C(=O)C(C/C=C(\C)CC/C=C(\C)CC/C=C(\C)CC/C=C(\C)CC/C=C(\C)CC/C=C(\C)CC/C=C(\C)CC/C=C(\C)CC/C=C(\C)CCC=C(C)C)=C(C)C1=O [coenzyme Q10 raw material, coenzyme Q10]
